Positions count from the first letter of the chain named. Read-outs that look alike come from different tables or passages of the source.

A word on the EC50: it is the concentration that produces a half-maximal response. A higher EC50 goes with a less potent agent.

Data set [1] concerns the target T1, ABCG2 (Homo sapiens, UniProt Q9UNQ0).
T1 construct: membrane vesicles of High Five insect cells overexpressing ABCG2
T1 sequence (Q9UNQ0 1-655): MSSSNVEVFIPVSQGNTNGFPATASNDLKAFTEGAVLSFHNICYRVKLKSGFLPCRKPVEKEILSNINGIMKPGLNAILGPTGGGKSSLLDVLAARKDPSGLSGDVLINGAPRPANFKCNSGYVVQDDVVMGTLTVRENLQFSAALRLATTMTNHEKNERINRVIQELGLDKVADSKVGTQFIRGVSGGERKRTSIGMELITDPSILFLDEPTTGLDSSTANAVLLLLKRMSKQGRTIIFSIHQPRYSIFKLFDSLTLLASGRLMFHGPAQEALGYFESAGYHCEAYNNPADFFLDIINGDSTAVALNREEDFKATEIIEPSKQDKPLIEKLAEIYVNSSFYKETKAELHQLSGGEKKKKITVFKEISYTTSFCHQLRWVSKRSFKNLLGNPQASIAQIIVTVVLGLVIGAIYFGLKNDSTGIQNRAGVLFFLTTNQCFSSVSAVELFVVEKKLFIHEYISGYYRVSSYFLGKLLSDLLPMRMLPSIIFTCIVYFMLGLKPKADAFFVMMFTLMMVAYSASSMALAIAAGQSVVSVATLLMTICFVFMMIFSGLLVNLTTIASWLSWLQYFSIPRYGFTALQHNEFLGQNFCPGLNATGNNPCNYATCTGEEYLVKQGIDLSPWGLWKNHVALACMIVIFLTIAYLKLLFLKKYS
Type of data set: biochemical. To be noted: membrane vesicles.

Data set [2] addresses T1, ABCG2. In words: vanadate-sensitive ATPase stimulation in membrane vesicles; [3H]-MX efflux from ABCG2-transfected cells. The format is biochemical.
The target of data set [3] is T2, ABCG2 (Homo sapiens, UniProt Q9UNQ0, R482T).
T2 construct: full-length ABCG2 in HEK293 cells
T2 sequence (Q9UNQ0 1-655 R482T): T1 sequence (Q9UNQ0 1-655) with R482T
In words: [3H]-mitoxantrone accumulation in HEK293/R482T cells at […]. The format is cell-based.

Data set [4] concerns the target T3, ABCG2 (Homo sapiens, UniProt Q9UNQ0, R482G).
T3 construct: full-length ABCG2 in HEK293 cells
T3 sequence (Q9UNQ0 1-655 R482G): T1 sequence (Q9UNQ0 1-655) with R482G
In words: [3H]-mitoxantrone accumulation in HEK293/R482G cells at […]. Type of data set: cell-based.

The target in data set [5] is T1, ABCG2. In words: vanadate-sensitive ATPase stimulation in membrane vesicles; also [3H]-mitoxantrone accumulation/efflux inhibition in HEK293/R482 cells. Type of data set: biochemical.

In turn, `CC[C@@]1(O)C(=O)OCc2c1cc1n(c2=O)Cc2cc3c(CN(C)C)c(O)ccc3nc2-1` [topotecan] had an EC50 at ABCG2 [1] of 2600 nM. `O=C1c2c(O)ccc(O)c2C(=O)c2c(NCCNCCO)ccc(NCCNCCO)c21` [mitoxantrone] displayed an EC50 at ABCG2 [2] of 2200 nM. `COc1cc(NC(=O)c2ccc(-c3ccc(Cl)cc3)o2)cc(OC)c1` [A-803467]: on ABCG2 [3], the “[3H]-mitoxantrone accumulation in HEK293/R482T cells at 7.5 μM” value was “significantly increased intracellular accumulation of [^3H]-MX in ABCG2-expressing cells HEK293/R482, HEK293/R482G and HEK293/R482T cells”. Also, the “[3H]-mitoxantrone accumulation in HEK293/R482G cells at 7.5 μM” value at ABCG2 [4] is “significantly increased intracellular accumulation of [^3H]-MX in ABCG2-expressing cells HEK293/R482, HEK293/R482G and HEK293/R482T cells”. The response on ABCG2 [5] was half-maximal at 718 nM (EC50).

These data come from publication PMC4770772 (Oncotarget, 2015).
